How the values were obtained:
Bos taurus = species on record: Bos taurus; assay: Compound was evaluated for permeability index in cultured bovine endothelial cell monolayer system; type: ADME; conditions: cattle
Rattus norvegicus [1] = species on record: Rattus norvegicus; assay: Ratio in isolated cardiac myocytes under anoxic/oxic conditions; type: functional, cell-based
Rattus norvegicus [2] = species on record: Rattus norvegicus; assay: In vitro evaluation of efficacy of BAPN in isolated cardiac myocytes under anoxic/oxic conditions; type: functional, cell-based
Rattus norvegicus [3] = species on record: Rattus norvegicus; assay: In vitro evaluation of efficacy of BAPN in isolated cardiac myocytes under normoxia condition; type: functional, cell-based
Rattus norvegicus [4] = species on record: Rattus norvegicus; assay: In vitro evaluation of efficacy of BAPN in isolated cardiac myocytes under anoxia condition; type: functional, cell-based

| Substance | Permeability index (Bos taurus) | Ratio (Rattus norvegicus [1]) | Ratio (Rattus norvegicus [2]) | Retention (Rattus norvegicus [3]) | Retention (Rattus norvegicus [4]) |
| --- | --- | --- | --- | --- | --- |
| 99m Tc-BAPN [listing 1 of 2 here] | -0.25 Pi | – | – | – | – |
| 99m Tc-BMS 181321 [listing 1 of 2 here] | – | 3.03% | 3.03 | 17.6% | – |
| 99m Tc-BAPN [listing 2 of 2 here] | – | 1.08 | – | 38.2% | 41.4% |
| 99m Tc-BMS 181321 [listing 2 of 2 here] | 63.2 Pi | – | – | – | – |

— ChEMBL document CHEMBL1127421, “The synthesis and in vitro evaluation of a 99mtechnetium-nitroimidazole complex based on a bis(amine-phenol) ligand: comparison to BMS-181321” (J Med Chem, 1994)
